Where two headings read alike, the source gives them in different places.
Experiments:
Format in all cases: cell-based, human
SJSA-1 = assay: Cell proliferation (Alamar Blue) assay, SJSA-1; conditions: Homo sapiens, SJSA-1, 24 h
Description: (§1) Cell viability assay was performed to assess the potency of the compounds in human cancer cell lines 786-0 (renal cell carcinoma) and SJSA-1 (osteosarcoma). Additional cell lines, such as pancreatic cancer cell lines (Panc 02.13, BxPC-3, Panc 12, Panc 02.03, Panc 6.03, PSN-1, HPAC, and Capan-1), prostate cancer cell lines (PC-3, DU145, 22Rv1, NCI-H660, BPH1, LNCaP, BM-1604, and MDA PCa 2b), etc., can be tested in a similar method.
(§2) Cells (SJSA-1, 786-0 and A431) were seeded (5000 cells/100 μL/well) in 96-well tissue culture plate and incubated at 37° C./5% CO2 for 16-24 hours. The cells were then treated with compounds (25 μL of 5×). The compound concentrations were 10-0.0005 μM prepared in 3-fold serial dilutions with final DMSO concentration of 1%. The plates were then incubated for 24 h at 37° C./5% CO2 in a moist environment. Then Alamar Blue™ reagent (final concentration 1×-12.5 μL) was added to each well and incubated for 1.5 hours at 37° C./5% CO2. The plates were read on fluorescence reader at 540 nm excitation and 590 nm emission wavelengths. The IC50 values were subsequently determined using a sigmoidal dose-response curve (variable slope) in GraphPad Prism® 5 software. Table A-3, Table B-3 and Table C-3 show cell proliferation data for certain compounds as described herein.

786-O = assay: Cell proliferation (Alamar Blue) assay, 786-O; conditions: Homo sapiens, 786-0, 24 h
Description: as §1, §2

A431 = assay: Cell proliferation (Alamar Blue) assay, A431
Description: as §1, §2

[1] = Table C-3, SJSA-1 cells, 24 h, read-out: IC50 (μM) SJSA-1
[2] = Homo sapiens, A-431, 24 h, Table C-3, A431 cells
[3] = Table B-3, head prints SJSB-1, 24 h, read-out: IC50 (μM) SJSB-1
[4] = Homo sapiens, A-431, 24 h, Table B-3, A431 cells
[5] = Table A-3, SJSA-1 cells, 24 h, read-out: IC50 (μM) SJSA-1
[6] = Homo sapiens, A-431, 24 h, Table A-3, A431 cells

Row | Structure (SMILES) | IC50 (SJSA-1; [3]) [µM] | IC50 (786-O; Table B-3, 786-O cells) [µM] | IC50 (A431; [4]) [µM] | further results
1 | C#CC(=O)N1[C@@H](CCCC)Cc2c([nH]c3c(F)cc(F)cc23)[C@@H]1CC(C)C [Compound C-5] | – | – | – | IC50 (SJSA-1; [1]): 0.22 µM; IC50 (786-O; Table C-3, 786-O cells): 0.22 µM; IC50 (A431; [2]): > 10 µM
2 | C#CC(=O)N1[C@@H](CCCC)Cc2c([nH]c3ccc(F)cc23)[C@@H]1c1ccc(C(=O)NCCOC)cc1 [Compound B-11] | 0.025 | 0.008 | 4.3 | –
3 | C#CC(=O)N1[C@@H](CCCC)Cc2c([nH]c3c(F)cc(F)cc23)[C@@H]1CCCC [Compound B-74] | 0.04 | 0.05 | 4.4 | –
4 | C#CC(=O)N1[C@@H](CCCC)Cc2c([nH]c3c(F)cc(F)cc23)[C@@H]1c1ccc(NC(=O)OCCCC(=O)O)cc1 [Compound B-86] | 0.239 | 0.227 | > 10 | –
5 | C#CC(=O)N1[C@@H](CCCC)Cc2c([nH]c3c(F)cc(F)cc23)[C@@H]1CCCC [Compound C-4] | – | – | – | IC50 (SJSA-1; [1]): 0.045 µM; IC50 (786-O; Table C-3, 786-O cells): 0.048 µM; IC50 (A431; [2]): 4.4 µM
6 | C#CC(=O)N1C(c2ccn(C34CC5CC(CC(C5)C3)C4)n2)c2[nH]c3ccccc3c2C[C@@H]1CCCC (stereo partly drawn) [Compound B-63] | 0.059 | 0.061 | 5.8 | –
7 | C#CC(=O)N1[C@@H](CCCC)Cc2c([nH]c3ncccc23)[C@@H]1c1ccc(F)cc1 [Compound A-3] | – | – | – | IC50 (SJSA-1; [5]): 0.017 µM; IC50 (786-O; Table A-3, 786-O cells): 0.017 µM; IC50 (A431; [6]): 8.36 µM
8 | C#CC(=O)N1[C@@H](CCCC)Cc2c([nH]c3ncccc23)[C@@H]1c1ccc(NC23CC4CC(CC(C4)C2)C3)cc1 [Compound A-7] | – | – | – | IC50 (SJSA-1; [5]): 0.058 µM; IC50 (786-O; Table A-3, 786-O cells): 0.034 µM; IC50 (A431; [6]): 4.88 µM
9 | C#CC(=O)N1[C@@H](CCCC)Cc2c([nH]c3c(F)cc(F)cc23)[C@@H]1c1ccc(NC23CC4CC(CC(C4)C2)C3)cc1 [Compound B-65] | 0.016 | 0.015 | 3.53 | –
10 | C#CC(=O)N1[C@@H](CCCC)Cc2c(n(C)c3ccccc23)[C@@H]1c1ccc(NC23CC4CC(CC(C4)C2)C3)cc1 [Compound B-70, 1-((1S,3S)-1-(4-(((1R,3R,5S)-adamantan-1-yl)amino)phenyl)-3-butyl-9-methyl-1,3,4,9-tetrahydro-2H-pyrido[3,4-b]indol-2-yl)prop-2-yn-1-one] | 0.066 | 0.0165 | 4.76 | –
11 | C#CC(=O)N1[C@@H](CCCC)Cc2c([nH]c3c(F)cc(F)cc23)[C@@H]1CCCCCCCC [Compound B-79] | 0.08 | 0.07 | 9.4 | –
12 | C#CC(=O)N1[C@@H](CCCC)Cc2c([nH]c3c(F)cc(F)cc23)[C@@H]1c1ccc(N2CCC2)cc1 [Compound B-59] | 0.016 | 0.011 | > 10 | –
13 | C#CC(=O)N1[C@@H](CCCC)Cc2c([nH]c3c(F)cc(F)cc23)[C@@H]1CCCCCCCC [Compound C-21] | – | – | – | IC50 (SJSA-1; [1]): 0.08 µM; IC50 (786-O; Table C-3, 786-O cells): 0.07 µM; IC50 (A431; [2]): 9.4 µM
14 | C#CC(=O)N1[C@@H](CCCC)Cc2c([nH]c3c(F)cc(F)cc23)[C@@H]1C1CCC(=O)CC1 [Compound B-76] | 0.247 | 0.168 | > 10 | –
15 | C#CC(=O)N1[C@@H](CCCC)Cc2c([nH]c3ccccc23)[C@@H]1c1ccc(NC23CC4CC(CC(C4)C2)C3)cc1 [Compound B-18] | 0.006 | 0.005 | – | IC50 (A431; Table B-3, A431 cells, 24 h): 7.8 µM
16 | CCCCCOC(=O)Nc1ccc([C@H]2c3[nH]c4c(F)cc(F)cc4c3C[C@H](CCCC)N2C(=O)CCl)cc1 [Compound B-89] | 0.002 | 0.008 | > 10 | –
17 | CCCC[C@H]1Cc2c([nH]c3c(F)cc(F)cc23)[C@H](c2ccc(N)cc2)N1C(=O)CCl [Compound B-85] | 0.024 | 0.012 | > 10 | –
18 | C#CC(=O)N1[C@@H](CCCC)Cc2c([nH]c3c(F)cc(F)cc23)[C@@H]1C1CCC(O)CC1 (stereo partly drawn) [Compound B-77] | 0.16 | 0.166 | 6.57 | –
19 | CCCCCOC(=O)NC12CC([C@H]3c4[nH]c5c(F)cc(F)cc5c4C[C@H](CCCC)N3C(=O)CCl)(C1)C2 [Compound B-90] | 0.03 | 0.013 | > 10 | –
20 | C#CC(=O)N1[C@@H](CCCC)Cc2c([nH]c3ccccc23)[C@@H]1c1ccc(NC2CCCC2)cc1 [Compound B-68] | 0.0715 | 0.045 | > 10 | –

Row | Structure (SMILES) | IC50 (SJSA-1; [3]) [µM] | IC50 (786-O; Table B-3, 786-O cells) [µM] | IC50 (A431; [4]) [µM] | further results
21 | CCCC[C@H]1Cc2c([nH]c3c(F)cc(F)cc23)[C@H](C23CC(N)(C2)C3)N1C(=O)CCl [Compound B-83] | 0.12 | 0.12 | > 10 | –
22 | C#CC(=O)N1C(CCCC)Cc2c([nH]c3ccccc23)[C@@H]1c1ccc(CNCC23CC4CC(CC(C4)C2)C3)cc1 (stereo partly drawn) [Compound B-45A] | 0.001 | 0.0002 | 3.8 | –
23 | C#CC(=O)N1[C@@H](CCCC)Cc2c([nH]c3c(F)cc(F)cc23)[C@@H]1CCCCCCCCCCCCCCC [Compound C-6] | – | – | – | IC50 (SJSA-1; [1]): > 10 µM; IC50 (786-O; Table C-3, 786-O cells): > 10 µM; IC50 (A431; [2]): > 10 µM
24 | C#CC(=O)N1[C@@H](CCCC)Cc2c([nH]c3ccccc23)[C@@H]1c1ccc(NC2CCS(=O)(=O)CC2)cc1 [Compound B-13] | 0.018 | 0.013 | 7.2 | –
25 | C[C@H]1Cc2c([nH]c3ncccc23)[C@@H](c2ccc(F)cc2)N1C(=O)CCl [Compound A-2] | – | – | – | IC50 (SJSA-1; [5]): 9.11 µM; IC50 (786-O; Table A-3, 786-O cells): 3.52 µM; IC50 (A431; [6]): 7.06 µM
26 | C#CC(=O)N1[C@@H](CCCC)Cc2c([nH]c3ccccc23)[C@@H]1c1ccc(NC2CCCCC2)cc1 [Compound B-71] | 0.056 | 0.042 | > 10 | –
27 | C#CC(=O)N1[C@@H](CCC)Cc2c([nH]c3ccccc23)[C@@H]1c1ccc(NC23CC4CC5CC(C2)C54C3)cc1 (stereo partly drawn) [Compound B-67] | 0.0025 | 0.006 | 2 | –
28 | C#CC(=O)N1[C@@H](C)Cc2c([nH]c3ccccc23)[C@]1(C)c1ccc(F)cc1 [Compound C-37] | – | – | – | IC50 (SJSA-1; [1]): 0.054 µM; IC50 (786-O; Table C-3, 786-O cells): 0.017 µM; IC50 (A431; [2]): > 10 µM
29 | C#CC(=O)N1[C@@H](c2ccc(NC34CC5CC(CC(C5)C3)C4)cc2)c2[nH]c3ccccc3c2C[C@@H]1C(=O)OC [Compound B-6, methyl (1S,3R)-1-(4-(((3R,5R,7R)-adamantan-1-yl)amino)phenyl)-2-propioloyl-2,3,4,9-tetrahydro-1H-pyrido[3,4-b]indole-3-carboxylate] | 0.024 | 0.024 | 6.1 | –
30 | C#CC(=O)N1[C@@H](CCCC)Cc2c([nH]c3ccccc23)[C@@H]1c1ccc(C(=O)NCC2(O)CCC2)cc1 [Compound B-16] | 0.029 | 0.007 | 6.4 | –
31 | C#CC(=O)N1[C@@H](CCCC)Cc2c([nH]c3c(F)cc(F)cc23)[C@@H]1COCCOC [Compound B-80] | 0.093 | 0.043 | 6.8 | –
32 | C#CC(=O)N1C(CCCC)Cc2c([nH]c3ccccc23)[C@H]1c1ccc(CNCC23CC4CC(CC(C4)C2)C3)cc1 (stereo partly drawn) [Compound B-45B] | 0.011 | 0.005 | 1.7 | –
33 | C#CC(=O)N1[C@@H](CCCC)Cc2c([nH]c3ccc(F)cc23)[C@@H]1c1ccc(NC23CC4CC(CC(C4)C2)C3)cc1 [Compound B-64] | 0.012 | 0.008 | 4.45 | –
34 | C#CC(=O)N1[C@@H](CCCC)Cc2c([nH]c3ccccc23)[C@]1(C)c1ccc(F)cc1 [Compound C-11] | – | – | – | IC50 (SJSA-1; [1]): 0.22 µM; IC50 (786-O; Table C-3, 786-O cells): 0.098 µM; IC50 (A431; [2]): > 10 µM
35 | C#CC(=O)N1[C@@H](CCCC)Cc2c([nH]c3c(F)cc(F)cc23)[C@@H]1c1ccc(N2CCN(C)CC2)cc1 [Compound B-57] | 0.063 | 0.059 | > 10 | –
36 | C#CC(=O)N1[C@@H](CCCC)Cc2c([nH]c3c(F)cc(F)cc23)[C@@H]1c1ccc(NC(=O)CCCCC(=O)O)cc1 [Compound B-87] | > 10 | > 10 | > 10 | –
37 | C#CC(=O)N1[C@@H](CCCC)Cc2c([nH]c3ccccc23)[C@@H]1CCCCC [Compound B-92] | 0.17 | 0.137 | > 10 | –
38 | C[C@H]1Cc2c([nH]c3ncccc23)[C@H](c2ccc(F)cc2)N1C(=O)CCl [Compound A-1] | – | – | – | IC50 (SJSA-1; [5]): 0.145 µM; IC50 (786-O; Table A-3, 786-O cells): 0.03 µM; IC50 (A431; [6]): > 10 µM
39 | C#CC(=O)N1[C@@H](CCCC)Cc2c([nH]c3ccccc23)[C@@H]1c1ccc(N2CCC3(COC3)C2)cc1 [Compound B-69, 1-((1S,3S)-1-(4-(2-oxa-6-azaspiro[3.4]octan-6-yl)phenyl)-3-butyl-1,3,4,9-tetrahydro-2H-pyrido[3,4-b]indol-2-yl)prop-2-yn-1-one] | 0.036 | 0.047 | > 1 | –
